Test results as given in patent US10322132B2, “Prevention or treatment of uratic or gouty diseases” (SHANTON PHARMA CO., LTD., priority 2015, dated 2019).

Test system: serum uric acid
Experiment: Uric acid-lowering test in monkeys having hyperuricemia (UA subcutaneous injection)
Format: in vivo, cynomolgus monkeys
Set-up: Reduction rate or serum uric acid: concentration or dose not given beside the values
Conditions: for Content of serum uric acid: Administration group
Protocol: The experiment was conducted by reference to Komoriya K, Osada Y, Hasegawa M, Horiuchi H, Kondo S, Couch R C, Griffin T B. Hypouricemic effect of allopurinol and the novel xanthine oxidase inhibitor TEI-6720 in chimpanzees. Eur J Pharmacol. 1993 Dec. 21; 250(3): 455-60.
In the Model group, three non-naïve cynomolgus monkeys (1 #, 2 # and 3 #) were administered with UA by subcutaneous injection at the nape. Blood was collected from the vein before UA administration and 0.5 h, 1 h, 2 h, 4 h, 6 h and 24 h after UA administration. The blood was left still at room temperature. The serum was collected by centrifugation. The content of serum uric acid was measured.
In the Administration group, three non-naïve cynomolgus monkeys (1 #, 2 # and 3 #) were administered with the test sample by intravenous injection after 2 weeks of clearance. Blood was collected from the vein before administration and 2 h after administration of test sample. Then, the monkeys were administered with UA by subcutaneous injection at the nape and blood was collected from the vein 1 h, 2 h and 4 h after the UA administration. The blood was left still at room temperature. The serum was collected by centrifugation. The content of serum uric acid was measured. Reduction rate of serum uric acid in healthy monkeys administered with test sample=(average uric acid content before administration−average uric acid content 2 h after administration of test sample)/average uric acid content before administration*100%, Reduction rate of serum uric acid in monkeys having hyperuricemia after administration of test sample=(uric acid content after UA administration in the model group−uric acid content after UA administration in the administration group)/uric acid content in the model group*(100%).
That was, the samples were collected before administration, 2 h after administration of test sample and 1 h, 2 h and 4 h after UA administration for determination of the serum uric acid content. The contents of serum uric acid in the model group and the administration group and the reduction rates of serum uric acid were shown in the following Tables 3-1, 3-2 and 3-3, respectively.

Question: With `CCCCCn1c(=O)[nH]c(=O)c2[nH]c(Cl)nc21` [Compound A, 8-chloro-3-pentyl-3,7-dihydro-1H-purine-2,6-dione] as the molecule, how does the “Reduction rate or serum uric acid” value (1 h after UA administration vs model group, animal 1#) read?
Answer: Its value is 35.5%.

Question: What about the “Reduction rate or serum uric acid” value (1 h after UA administration vs model group, animal 2#) of the same molecule?
Answer: The value was 26.2%.

Question: And the “Reduction rate or serum uric acid” value (1 h after UA administration vs model group, animal 3#)?
Answer: The value was 56.0%.

Question: What about the “Reduction rate or serum uric acid” value (1 h after UA administration vs model group, mean) of the same molecule?
Answer: The value was 39.2%.

Question: And the “Reduction rate or serum uric acid” value (2 h after UA administration vs model group, animal 1#)?
Answer: Its value is 67.1%.

Question: What about the “Reduction rate or serum uric acid” value (2 h after UA administration vs model group, animal 2#) of the same molecule?
Answer: The value was 37.2%.

Question: What about the “Reduction rate or serum uric acid” value (2 h after UA administration vs model group, animal 3#) of the same molecule?
Answer: Its value is 45.5%.

Question: And the “Reduction rate or serum uric acid” value (2 h after UA administration vs model group, mean)?
Answer: The value was 49.1%.

Question: What about the “Reduction rate or serum uric acid” value (2 h after administration of test sample vs before administration (healthy monkeys), animal 1#) of the same molecule?
Answer: The value was 46.4%.

Question: What about the “Reduction rate or serum uric acid” value (2 h after administration of test sample vs before administration (healthy monkeys), animal 2#) of the same molecule?
Answer: The value was 30.2%.

Question: What about the “Reduction rate or serum uric acid” value (2 h after administration of test sample vs before administration (healthy monkeys), animal 3#) of the same molecule?
Answer: Its value is 1.56%.

Question: And the “Reduction rate or serum uric acid” value (2 h after administration of test sample vs before administration (healthy monkeys), mean)?
Answer: The value was 26.1%.

Question: And the “Reduction rate or serum uric acid” value (4 h after UA administration vs model group, animal 1#)?
Answer: The value was 64.3%.

Question: And the “Reduction rate or serum uric acid” value (4 h after UA administration vs model group, animal 2#)?
Answer: The value was 77.1%.

Question: What about the “Reduction rate or serum uric acid” value (4 h after UA administration vs model group, animal 3#) of the same molecule?
Answer: Its value is 32.6%.

Question: What about the “Reduction rate or serum uric acid” value (4 h after UA administration vs model group, mean) of the same molecule?
Answer: The value was 58.0%.

Question: What about the “Content of serum uric acid” value (1 h after UA administration, animal 1#) of the same molecule?
Answer: Its value is 75.3 µmol/L.

Question: And the “Content of serum uric acid” value (1 h after UA administration, animal 2#)?
Answer: The value was 97.5 µmol/L.

Question: And the “Content of serum uric acid” value (1 h after UA administration, animal 3#)?
Answer: The value was 53.1 µmol/L.

Question: And the “Content of serum uric acid” value (1 h after UA administration, mean)?
Answer: Its value is 75.3 µmol/L.

Question: And the “Content of serum uric acid” value (2 h after UA administration, animal 1#)?
Answer: The value was 26.6 µmol/L.

Question: What about the “Content of serum uric acid” value (2 h after UA administration, animal 2#) of the same molecule?
Answer: The value was 58.0 µmol/L.

Question: And the “Content of serum uric acid” value (2 h after UA administration, animal 3#)?
Answer: Its value is 37.0 µmol/L.

Question: What about the “Content of serum uric acid” value (2 h after UA administration, mean) of the same molecule?
Answer: The value was 40.5 µmol/L.

Question: And the “Content of serum uric acid” value (4 h after UA administration, animal 1#)?
Answer: The value was 28.4 µmol/L.

Question: What about the “Content of serum uric acid” value (4 h after UA administration, animal 2#) of the same molecule?
Answer: The value was 12.3 µmol/L.

Question: And the “Content of serum uric acid” value (4 h after UA administration, animal 3#)?
Answer: The value was 43.2 µmol/L.

Question: What about the “Content of serum uric acid” value (4 h after UA administration, mean) of the same molecule?
Answer: Its value is 28.0 µmol/L.

Question: And the “Content of serum uric acid” value (intravenous, 2 h after administration of test sample (before UA), animal 1#)?
Answer: The value was 12.3 µmol/L.

Question: What about the “Content of serum uric acid” value (intravenous, 2 h after administration of test sample (before UA), animal 2#) of the same molecule?
Answer: Its value is 37.0 µmol/L.

Question: And the “Content of serum uric acid” value (intravenous, 2 h after administration of test sample (before UA), animal 3#)?
Answer: The value was 34.6 µmol/L.

Question: What about the “Content of serum uric acid” value (intravenous, 2 h after administration of test sample (before UA), mean) of the same molecule?
Answer: The value was 28.0 µmol/L.

Question: And the “effect on content of serum uric acid in the test monkeys (in words)” value (compared to the model group (self-comparation))?
Answer: Its value is “significantly reduce”.
